# Values of other authors, collected in patent US20130236595A1, “FOOD PRODUCT PROVIDING SUSTAINED BLOOD LEVELS OF EXOGENOUS SUBSTANCES” (NESTEC S.A., priority 2003, published 2013).
# “Also recorded” adds a separate entry of the source.
# Columns and labels:
# [1] = caffeine in blood plasma
smiles,measurement,setting,value
Cn1c(=O)c2c(ncn2C)n(C)c1=O [caffeine],time of peak in caffeine level in blood,after a cup of coffee is consumed,after about an hour; also recorded: after one hour
same,half-life of caffeine,in adults,3 to 7 h
same,threshold value for stimulation,[1],about 2 mg/l
